The numbers were not newly measured in patent US12176074B2, “Compound function prediction method based on neural network and connectivity map algorithm” (BEIJING GIGACEUTICALS TECH. CO. LTD, priority 2021, dated 2024), which cites them from elsewhere.

The test system of this data set is novel coronavirus (SARS-CoV-2). Conditions: specific data in Chinese patent application 202010309486.2; read-out: EC50, effect for fighting against the novel coronavirus.

Broadly, the EC50 is the concentration needed to bring the measured effect to its halfway point. For `O=C1C[C@@H](c2ccc(O[C@@H]3O[C@H](CO)[C@@H](O)[C@H](O)[C@H]3O)cc2)Oc2cc(O)ccc21` [liquiritin], the EC50 is 2.39 µM.
